Measured values from patent US8822440B2, “Inhibiting cyclin D polypeptides” (Mayo Foundation for Medical Education and Research, priority 2006, dated 2014).
“Also recorded” adds a separate entry of the source.

How the values were obtained:
NIH3T3 cells = assay type: cell-based, mouse; conditions: MTS
Description: (§1) NIH3T3 cells stably expressing c-maf and the CCND2 promoter driving luciferase (13,000 cells per well) were plated in 96-well plates by a Biomek FX liquid handler (Beckman, Fullerton, Calif.). After the cells had adhered, they were treated with aliquots of molecules from LOPAC (Sigma, St. Louis, Mo.), Prestwick (Prestwick Chemical Inc, Illkirch, France) or Spectrum (Microsource Discovery Systems, Gaylordsville, Conn.) libraries of off-patent drugs and chemicals at a final concentration of ˜5 μM and <0.1% DMSO. Cells were incubated with compounds at 37° C. for 16 hours.
(§2) Viability assay. The effects of screened compounds on cell viability was assessed by 3-(4,5-dimethyl[…])-5-(3-carboxymethoxyphenyl)-2-(4-sulfophenyl)-2-H-tetrazolium (MTS) assay according to the manufacture's instructions (Progmega, Madison, Wis.). MTS reagent (20 μL/well in 96 well plates) was added to cells, and these were then incubated at 37° C. for 4 hours. Absorbance at 490 nm was determined using a 96-well plate reader.
(§3) In an optimized automated assay, NIH3T3 cells over-expressing c-maf and the human cyclin D2 promoter driving luc were plated in 96-well plates by robot and following adhesion were treated for 16 hours with compounds at a final concentration of ˜5 μM and <0.1% DMSO. As a control, cells were treated with buffer alone. […] Thus, each compound from the library was tested in at least two assays—luciferase for CCND2 activity and MTS for viability. The coefficient of variance (CV) of the assay was <10%.

[1] = test system: human myeloma cell lines (HMCL); assay: HMCL viability / cytotoxicity (MTT, MTS); assay type: cell-based
Description: Subsequent validation studies using selected compounds in human myeloma cell lines (HMCL) confirmed successful suppression of both cyclin D2 and D1 polypeptides. Each of these compounds was then shown to be cytotoxic to a genetically diverse and standardized panel of 14 HMCL in MTT assays: monensin (10-760 nM), camptothecin (5-700 nM), dihydrogambogic acid (250-800 nM), pristimerin (150-500 nM), and kinetin riboside (2.5-20 μM). Cell cycle analysis confirmed induction of G0/G1 phase arrest for most compounds, consistent with cyclin D inhibition.
as §2

[2] = test system: CD138− hematopoietic cells; assay: Unsorted myeloma patient bone marrow, flow cytometry: CD138- non-malignant cells; assay type: cell-based; conditions: patient bone marrow, 48 hours
Description: Flow cytometry. HMCL were treated as indicated and then washed in cold phosphate-buffered saline (PBS) and resuspended in buffer containing AnnexinV-FITC and propidium iodide (BD Biosciences, San Jose, Calif.) for 15 minutes at room temperature. Cells (10^5) were subsequently diluted and analyzed immediately by flow cytometry (FACScan, BD Biosciences, San Jose, Calif.) using CellQuest software. Patient bone marrow specimens were prepared and analyzed in a similar fashion using AnnexinV-FITC and anti-CD138-PE (BD Biosciences, San Jose, Calif.).
As mouse embryos that lack any D-cyclins eventually die from hematopoietic failure (Kozar et al., Cell, 118, 477-91 (2004)), the bone marrow might be predicted to be one of the most sensitive non-malignant tissue to be affected by drugs targeting cyclin D expression. Unsorted bone marrow samples from myeloma patients were treated with kinetin riboside to assess the relative cytotoxicity of this drug on malignant versus non-malignant marrow cells. Bone marrow samples were first processed to remove non-nucleated red cells and were then treated for 48 hours with kinetin riboside (5 μM).

[3] = Pristimerin toxicity studies in mice; assay type: in vivo; conditions: i.p. daily
Description: While pristimerin is cytotoxic to HMCL and patient myeloma cells at 0.1-0.15 mg/L, toxicity studies in vivo indicate that the drug is tolerated in mice at 2.5 mg/kg i.p. daily.

CCND2 promoter = assay: CCND2 promoter-luciferase transactivation assay in NIH3T3 cells with or without c-maf; assay type: cell-based, mouse; conditions: ~5 μM, 16 hours; hit = 50% or more reduction in luciferase relative to cell viability
Description: Using this assay, Lopac (n=1280), Prestwick (n=1120), and Spectrum (n=2000) libraries of drugs and natural compounds were screened. In a parallel MTS assay, the effect of each compound on 3T3 viability was determined, allowing exclusion of compounds that caused secondary suppression of CCND2 due to non-specific cytotoxicity. […] These included monensin, patulin, β-lapachone, camptothecin, dihydrogambogic acid, gentian violet, thapsigargin, brefeldin A, pristimerin, and kinetin riboside.
Full-length c-maf cDNA was subcloned into an IRES-GFP MIEV retroviral vector and introduced into NIH3T3 cells by infection. Stable clones expressing GFP and c-maf were selected by flow cytometry and immunoblotting, respectively. The promoter of human cyclin D2 (−894 to −4; Brooks et al., J. Biol. Chem., 271, 9090-9 (1996)), containing c-maf responsive element sequence (MARE), was cloned from DNA from HeLa cells and inserted into the pGLbasic firefly luciferase vector (Promega, Madison, Wis.) immediately upstream of the luciferase gene. This construct was co-transfected with pcDNA3 (containing a neomycin resistance gene) into both NIH3T3 wild type cells and NIH3T3 cells stably over-expressing c-maf-IRES-GFP. Cells stably expressing c-maf, GFP, and luciferase were selected.
as §1
Luciferase assay. Luciferase activity was assessed according to the manufacturer's instructions (Promega, Madison, Wis.). Briefly, the cell culture medium was removed using an EMBLA plate washer (Molecular Devices, X) and Glo Lysis buffer (Promega) was added by robot. After a 10-minute incubation, an equal volume of Bright-Glo Luciferase substrate (Promega) was added, and luminescence signal was detected with a 96-well Luminoskan luminescence plate reader (Thermo Labsystem, Waltham, Mass.) using a 5 second integration.
Studies of kinetin riboside using 3T3-D2-luc cells. To examine CCND2 suppression induced by kinetin riboside, the reporter cells were exposed to kinetin riboside in combination with other drugs (all purchased from Sigma, St. Loius, Mo.) that influence CCND2 transcription or inhibit nucleoside transport or phosphorylation. NIH3T3 cells expressing the CCND2 promoter driving luciferase were incubated with kinetin riboside or vehicle control +/− forskolin, 4-(3-butoxy-4-methoxybenzyl)imidazolidin-2-one (BMBI), cantharadin, S-(4-Nitrobenzyl)-6-thioinosine (NBTI), or A-134974, as specified at 5 μM concentration for 16 hours at 37° C. […] Forskolin is a cell-permeable diterpenoid that activates adenylate cyclase resulting in increased cAMP concentration. BMBI (Sigma B8279) is an inhibitor of cAMP phosphodiesterase that also causes accumulation of cAMP. Cantharadin (C7632) is an inhibitor of protein phosphatase 2A and, from the library screen, mediates induction of CCND2. NBTI (Sigma N2255) is a potent adenosine uptake inhibitor, and A-134974 (Sigma A2846) is a selective inhibitor of adenosine kinase.
as §3

RSV promoter = assay: Luciferase driven by RSV promoter in NIH3T3 cells (specificity control); assay type: cell-based
Description: Exclusion of non-specific or toxic assay ‘hits.’ Drugs that decreased luciferase activity without affecting viability may cause reduced transactivation of the cyclin D2 promoter, or may act non-specifically on the activity of the luciferase enzyme. To distinguish between these two possibilities, hits were re-tested against NIH3T3 cells that over-expressed luciferase driven by an RSV promoter. […] Therefore, these drugs were excluded from further analysis.

## COC(=O)[C@]1(C)CC[C@]2(C)CC[C@]3(C)C4=CC=C5C(=CC(=O)C(O)=C5C)[C@]4(C)CC[C@@]3(C)[C@@H]2C1 [pristimerin]
NIH3T3 cells
  effect on NIH3T3 viability: relatively minor effects
[1]; HMCL and patient myeloma cells
  cytotoxic concentration: 0.1 to 0.15 mg/L
[1]; MTT assays, 14 HMCL
  cytotoxic concentration across panel of 14 HMCL: 150 to 500 nM
[2]
  toxicity in CD138− bone marrow progenitor compartment: only modest toxicity
[3]
  dose tolerated in mice: 2.5 mg/kg

## O=C1C=C2C(=CCOC2O)O1 (centres unmarked) [patulin]
CCND2 promoter
  identified as putative inhibitor of CCND2 transactivation (screen hit): putative CCND2 inhibitors; also recorded: putative suppressors of CCND2
NIH3T3 cells
  effect on NIH3T3 viability: excess NIH3T3 cytoxicity
RSV promoter
  effect on luciferase driven by RSV promoter: non-specifically reduce luciferase activity
